Reference: patent US7820679B2, “N-(-3-methoxy-5-methylpyrazin-2-yl)-2-(4-′1,3,4-oxadiazol-2-yl-phenyl)pyridine-3 sulphonamide as an anticancer agent” (AstraZeneca AB, priority 2002, dated 2010)
“And” between values parts separate entries of the source, which are not always exact repeats. Equal entries are not always repeated. Each block holds one compound with its values, some of them ahead of it. Where no end group is shown, it is not given here.

What was measured:
[1] = tested on: DU145 prostate tumour; assay: Inhibition of angiogenesis in primary tumours, intradermal DU145 tumour in nude mice; format: in vivo; settings: 5 days, vs vehicle
Source text: (§1) A 1 cm^2 area with the tumour at the centre was examined and the number of blood vessels bifurcations within that area supplying the tumour were counted.

[2] = tested on: endothelin receptors; assay: Human forearm blood flow, vasoconstriction in response to infused ET-1; format: in vivo; settings: healthy male subjects, single oral doses 10 mg and 30 mg, 2-4 hours post dosing; p=0.0210; evidence of a dose response
Source text: Human forearm blood flow can be assessed by temporarily impeding the venous drainage from the arm by the application of a pneumatic cuff on the upper arm, which is then inflated to just above venous pressure. The resulting arterial flow into the arm with no corresponding venous drainage leads to engorgement and swelling of the forearm, which can be detected with sensitive strain gauges. Infusion of the arterial vasoconstrictor ET-1 into the brachial artery leads to a reduction in forearm distension due to decreased arterial inflow. This vasoconstriction is mediated via endothelin receptors on the vascular endothelium and associated smooth muscle.

[3] = target: T1, Human recombinant ETB receptor (Homo sapiens, UniProt P24530); assay: Endothelin human receptor binding assay (125I-ET-1 competition), ETB; settings: at a concentration of 10^-4 M, n=3
T1 construct: expressed in transfected cells; host or cells: mouse erythroleukaemic (MEL) cells, membrane preparation
T1 sequence (P24530 27-442): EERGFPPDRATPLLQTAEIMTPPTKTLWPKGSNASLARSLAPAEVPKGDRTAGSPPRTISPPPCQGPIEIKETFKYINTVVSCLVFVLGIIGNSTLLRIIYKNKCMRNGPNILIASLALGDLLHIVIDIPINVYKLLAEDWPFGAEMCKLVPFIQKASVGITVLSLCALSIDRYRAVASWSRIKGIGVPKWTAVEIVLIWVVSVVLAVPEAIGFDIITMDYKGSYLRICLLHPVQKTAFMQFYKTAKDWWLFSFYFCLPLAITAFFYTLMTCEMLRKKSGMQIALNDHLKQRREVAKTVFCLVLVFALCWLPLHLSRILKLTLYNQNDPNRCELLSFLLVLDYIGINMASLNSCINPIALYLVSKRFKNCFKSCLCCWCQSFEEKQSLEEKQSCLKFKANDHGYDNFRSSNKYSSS
Source text: 1) Endothelin Human Receptor Binding Assay

[4] = tested on: LOVO colon tumour; assay: Inhibition of angiogenesis in primary tumours, intradermal LOVO tumour in nude mice; format: in vivo; settings: 5 days, vs vehicle
Source text: as §1

[5] = tested on: ET-1 induced MAPK phosphorylation in MC3T3.E1/J1 cells; assay: Inhibition of ET-1 induced MAPK phosphorylation in osteoblast cell line MC3T3.E1/J1 (western blot, densitometry); format: cell-based, mouse; settings: Serum Free Media = 100.00
Description: The MC3T3. E1/J1 cell line was isolated from a parental cell line, MC3T3-E1 (available from Invitrogen), which had in turn been derived from newborn C57BL/6 mouse calvaria. The MC3T3 E1/J1 line is described as an osteoblastic line. To initiate the experiments described below, MC3T3.E1/J1 cells were plated at a density of 2.4×10^4 cells/well (24 well plates) in serum containing media and incubated for 48 hours. The cells were washed twice in PBS and re-incubated for approximately 17 hours in serum starvation media.
All media was then removed and the cells lysed and stored at −20° C. for electrophoresis/western blot, which localized phosphorylated MAPK and phosphorylated Akt probing with anti-phospho-p44/42 MAPK (Thr 202/204) and anti-Phospho AKT (Ser 473) antibodies (both commercially available from Cell Signalling Technology). The protein bands were quantitated by densitometry, and plotted as arbitrary densitometry units. Phosphorylated MAPK levels were normalised to total MAPK levels.

mean displacement at the ETB receptor [3]: 1.2±0.7%
Compound: COc1nc(C)cnc1NS(=O)(=O)c1cccnc1-c1ccc(-c2nnco2)cc1 [Compound (I), N-(3-methoxy-5-methylpyrazin-2-yl)-2-(4-[1,3,4-oxadiazol-2-yl]phenyl)pyridine-3-sulphonamide]
Inhibition of vessel count ([1]; 25 mg/kg once daily p.o.): 38% (P < 0.001)
Inhibition of vessel count ([1]; 50 mg/kg once daily p.o.): 30% (P < 0.05)
forearm blood flow in response to infused ET-1 compared to placebo [2]: statistically significant reduction
Inhibition of vessel count ([4]; 25 mg/kg once daily p.o.): 28% (P < 0.001)
Inhibition of vessel count ([4]; 50 mg/kg once daily p.o., 50 mg/kg): 20% (P = 0.001) and 28% (P < 0.001)
Phosphorylated MAPK, Average ([5]; ET-1 100 nm + Compound (I) 0.1 μm, normalised to total MAPK): 422.11 arbitrary densitometry units
Phosphorylated MAPK, Average ([5]; ET-1 100 nm + Compound (I) 1 μm, normalised to total MAPK): 157.41 arbitrary densitometry units
Phosphorylated MAPK, Average ([5]; ET-1 100 nm + Compound (I) 10 μm, normalised to total MAPK): 105.15 arbitrary densitometry units
Phosphorylated MAPK, Average ([5]; ET-1 100 nm + Compound (I) 20 μm, normalised to total MAPK): 109.18 arbitrary densitometry units

Compound: ET-1: endogenous 21 amino acid peptide, endothelin isoform; used as stimulus and radioligand (CSCSSLMDKECVYFCHLDIIW; ends and bridges not checked; cysteine pairing not given here; UniProt P05305 53-73, looked up) [reference compound]
Phosphorylated MAPK, Average ([5]; ET-1 100 nm alone, 3 minutes stimulation): 312.78 arbitrary densitometry units and 369.85 arbitrary densitometry units
